Source: ChEMBL document CHEMBL1201862, “PubChem BioAssay data set” (2004)
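Briefly, cells in 96-well plates were exposed to five compound concentrations for 48 h, and endpoints were estimated by linear interpolation. Abbreviation: GI50, concentration required for 50% inhibition of growth.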 The source made the active and inactive calls. Cut-off read from the data, not from the text of the source: active = GI50 up to about 1.1 µM and inactive = higher.

Experiments:
Test in all cases: DTP human tumour cell line panel, 48 h
EKVX = tested on: EKVX
K562 = tested on: K562
786-0 = tested on: 786-0
PC-3 = tested on: PC-3
RPMI-8226 = tested on: RPMI-8226
SW-620 = tested on: SW-620
OVCAR-4 = tested on: OVCAR-4
NCI-H522 = tested on: NCI-H522
SK-MEL-28 = tested on: SK-MEL-28
HCT-15 = tested on: HCT-15
HOP-62 = tested on: HOP-62
MCF7 = tested on: MCF7
MDA-MB-231 = tested on: MDA-MB-231
NCI/ADR-RES = tested on: NCI/ADR-RES
A549 = tested on: A549
SK-MEL-2 = tested on: SK-MEL-2
SF-539 = tested on: SF-539
MOLT-4 = tested on: MOLT-4
SK-OV-3 = tested on: SK-OV-3
UACC-62 = tested on: UACC-62

In the case of `O=C1C(/C=N/CCc2c[nH]c3ccccc23)C(C(F)(F)F)=NN1c1nc2ccccc2s1` (stereo not given), the GI50 (EKVX) is reported as 23.1 µM (inactive), the GI50 (K562) is reported as 29.2 µM (inactive) and the GI50 (786-0) is reported as 39.2 µM (inactive). The GI50 (PC-3) was 31 µM (inactive), the GI50 (RPMI-8226) was 22.2 µM (inactive) and the GI50 (SW-620) was 38.9 µM (inactive). For the same molecule, the GI50 (OVCAR-4) was 26.7 µM (inactive), the GI50 (NCI-H522) was 19.5 µM (inactive) and the GI50 (SK-MEL-28) was 33.3 µM (inactive). For the same molecule, the GI50 (HCT-15) was 29.9 µM, the GI50 (HOP-62) was 20.4 µM (inactive) and the GI50 (MCF7) was 23 µM (inactive). For the same molecule, the GI50 (MDA-MB-231) was 36.7 µM (inactive), the GI50 (NCI/ADR-RES) was 26.7 µM (inactive) and the GI50 (A549) was 18.3 µM (inactive). The GI50 (SK-MEL-2) was 28.8 µM (inactive), the GI50 (SF-539) was 31.1 µM (inactive) and the GI50 (MOLT-4) was 21.1 µM (inactive). For the same molecule, the GI50 (SK-OV-3) was 25.3 µM (inactive) and the GI50 (UACC-62) was 19.5 µM (inactive).

`CC(C)CNc1nc(N)nc(O)c1NC=O` was tested, and the GI50 (EKVX) was > 100 µM (inactive), the GI50 (K562) was > 100 µM (inactive) and the GI50 (786-0) was > 100 µM (inactive). The GI50 (PC-3) was > 100 µM (inactive), the GI50 (RPMI-8226) was > 100 µM (inactive) and the GI50 (SW-620) was > 100 µM (inactive). The GI50 (OVCAR-4) was > 100 µM (inactive), the GI50 (NCI-H522) was > 100 µM (inactive) and the GI50 (SK-MEL-28) was > 100 µM (inactive). For the same molecule, the GI50 (HCT-15) was > 100 µM, the GI50 (HOP-62) was > 100 µM (inactive) and the GI50 (MCF7) was > 100 µM (inactive). For the same molecule, the GI50 (MDA-MB-231) was > 100 µM (inactive), the GI50 (NCI/ADR-RES) was > 100 µM (inactive) and the GI50 (A549) was > 100 µM (inactive). For the same molecule, the GI50 (SK-MEL-2) was > 100 µM (inactive), the GI50 (SF-539) was > 100 µM (inactive) and the GI50 (MOLT-4) was > 100 µM (inactive). The GI50 (SK-OV-3) was > 100 µM (inactive) and the GI50 (UACC-62) was > 100 µM (inactive).

In the case of `O=c1c2cc(S(=O)(=O)Nc3ccc(Cl)cc3Cl)ccc2ncn1NS(=O)(=O)c1cccc2ccccc12`, the GI50 (EKVX) is reported as 14.7 µM (inactive), the GI50 (K562) is reported as 63.5 µM (inactive) and the GI50 (786-0) is reported as 42 µM (inactive). For the same molecule, the GI50 (PC-3) was 23.7 µM (inactive), the GI50 (RPMI-8226) was 21.1 µM (inactive) and the GI50 (SW-620) was 71.4 µM (inactive). The GI50 (OVCAR-4) was 41.7 µM (inactive), the GI50 (NCI-H522) was 24 µM (inactive) and the GI50 (SK-MEL-28) was 99.5 µM (inactive). For the same molecule, the GI50 (HCT-15) was 34.1 µM, the GI50 (HOP-62) was 41.3 µM (inactive) and the GI50 (MCF7) was 20.7 µM (inactive). For the same molecule, the GI50 (MDA-MB-231) was 20.4 µM (inactive), the GI50 (NCI/ADR-RES) was 31.3 µM (inactive) and the GI50 (A549) was 36.9 µM (inactive). The GI50 (SK-MEL-2) was 38.1 µM (inactive), the GI50 (SF-539) was 38.3 µM (inactive) and the GI50 (MOLT-4) was 18.2 µM (inactive). The GI50 (SK-OV-3) was 66.8 µM (inactive) and the GI50 (UACC-62) was 28.9 µM (inactive).

`O=C(NNC(=O)c1ccccc1O)c1cccc(Br)c1` was tested, and the GI50 (EKVX) was 23.6 µM (inactive), the GI50 (K562) was 46.7 µM (inactive) and the GI50 (786-0) was 44.9 µM (inactive). For the same molecule, the GI50 (PC-3) was 44.8 µM (inactive), the GI50 (RPMI-8226) was 15.2 µM (inactive) and the GI50 (SW-620) was 35 µM (inactive). For the same molecule, the GI50 (OVCAR-4) was 45.5 µM (inactive), the GI50 (NCI-H522) was 6.25 µM (inactive) and the GI50 (SK-MEL-28) was > 91.8 µM (inactive). The GI50 (HCT-15) was 6.85 µM, the GI50 (HOP-62) was 56.8 µM (inactive) and the GI50 (MCF7) was 6.71 µM (inactive). For the same molecule, the GI50 (MDA-MB-231) was 18.2 µM (inactive), the GI50 (NCI/ADR-RES) was 21.1 µM (inactive) and the GI50 (A549) was 25.5 µM (inactive). For the same molecule, the GI50 (SK-MEL-2) was > 70 µM (inactive), the GI50 (SF-539) was > 70 µM (inactive) and the GI50 (MOLT-4) was 9.23 µM (inactive). For the same molecule, the GI50 (SK-OV-3) was 54.1 µM (inactive) and the GI50 (UACC-62) was 47.3 µM (inactive).

`Cc1cc2c(c3oc(C(O)(CO)C4CO4)cc(=O)c13)C(=O)c1c(O)cccc1C2=O` (stereo not given) was tested, and the GI50 (EKVX) was 0.0023 µM (active), the GI50 (K562) was 0.000982 µM (active) and the GI50 (786-0) was 0.000439 µM (active). The GI50 (PC-3) was 0.000841 µM (active), the GI50 (RPMI-8226) was 0.000313 µM (active) and the GI50 (SW-620) was 0.000377 µM (active). The GI50 (OVCAR-4) was 0.00158 µM (active), the GI50 (NCI-H522) was 0.0012 µM (active) and the GI50 (SK-MEL-28) was 0.00219 µM (active). The GI50 (HCT-15) was 0.000887 µM, the GI50 (HOP-62) was 0.00147 µM (active) and the GI50 (MCF7) was 0.000435 µM (active). For the same molecule, the GI50 (MDA-MB-231) was 0.00213 µM (active), the GI50 (NCI/ADR-RES) was 0.00129 µM (active) and the GI50 (A549) was 0.00149 µM (active). The GI50 (SK-MEL-2) was 0.00151 µM (active), the GI50 (SF-539) was 0.000662 µM (active) and the GI50 (MOLT-4) was 0.000145 µM (active). For the same molecule, the GI50 (SK-OV-3) was 0.00188 µM (active) and the GI50 (UACC-62) was 0.00119 µM (active).
